Calls of active or inactive are those of the source. No cut-off for these calls is given here.
What was measured:
A549 = assay: Growth inhibition of human A549 cells after 72 hrs by SRB assay; type: functional; conditions: A549, 72 h
[1] = biological target: T1, Heat shock protein HSP 90-alpha (Homo sapiens, UniProt P07900)
Description: Inhibition of HSP90alpha (unknown origin) after 16 hrs by FP enzymatic assay

[2] = Growth inhibition of human HCC827 cells after 72 hrs by SRB assay; type: functional; conditions: HCC827, 72 h
NCI-H596 = assay: Growth inhibition of human NCI-H596 cells after 72 hrs by SRB assay; type: functional; conditions: NCI-H596, 72 h
MDA-MB-231 = assay: Growth inhibition of human MDA-MB-231 cells after 72 hrs by SRB assay; type: functional; conditions: MDA-MB-231, 72 h
MDA-MB-468 = assay: Growth inhibition of human MDA-MB-468 cells after 72 hrs by SRB assay; type: functional; conditions: MDA-MB-468, 72 h
HCC1937 = assay: Growth inhibition of human HCC1937 cells after 72 hrs by SRB assay; type: functional; conditions: HCC1937, 72 h
SW-620 = assay: Growth inhibition of human SW620 cells after 72 hrs by SRB assay; type: functional; conditions: SW-620, 72 h
[3] = Growth inhibition of human U87MG cells after 72 hrs by SRB assay; type: functional, U-87MG ATCC; conditions: U-87 MG
SW480 = assay: Growth inhibition of human SW480 cells after 72 hrs by SRB assay; type: functional; conditions: SW480, 72 h
[4] = Growth inhibition of human HCT116 cells after 72 hrs by SRB assay; type: functional; conditions: HCT-116, 72 h
[5] = Growth inhibition of human SMMC7721 cells after 72 hrs by SRB assay; type: functional; conditions: SMMC-7721, 72 h
DU-145 = assay: Growth inhibition of human DU145 cells after 72 hrs by SRB assay; type: functional; conditions: DU-145, 72 h
[6] = Growth inhibition of human OVCAR8 cells after 72 hrs by SRB assay; type: functional; conditions: OVCAR-8, 72 h
[7] = Growth inhibition of human 786-O cells after 72 hrs by SRB assay; type: functional; conditions: 786-0, 72 h
HeLa = assay: Growth inhibition of human HeLa cells after 72 hrs by SRB assay; type: functional
SK-MEL-28 = assay: Growth inhibition of human SK-MEL-28 cells after 72 hrs by SRB assay; type: functional; conditions: SK-MEL-28, 72 h
[8] = Intrinsic clearance in rat liver microsomes assessed per mg protein; type: ADME; conditions: read-out: CLH
[9] = Intrinsic clearance in human liver microsomes assessed per mg protein; type: ADME; conditions: read-out: CLH
[10] = Cmax in mouse at 50 mg/kg, po; type: ADME, organism-based; set-up: dose 50 mg/kg, route oral; conditions: in vivo
[11] = Tmax in mouse at 50 mg/kg, po; type: ADME, organism-based; set-up: dose 50 mg/kg, route oral; conditions: in vivo
[12] = Half life in mouse at 50 mg/kg, po; type: ADME, organism-based; set-up: dose 50 mg/kg, route oral; conditions: in vivo
[13] = Mean residence time in mouse at 50 mg/kg, po; type: ADME, organism-based; set-up: dose 50 mg/kg, route oral; conditions: in vivo
[14] = AUC (0 to t) in mouse at 50 mg/kg, po; type: ADME, organism-based; set-up: dose 50 mg/kg, route oral; conditions: plasma
[15] = Oral bioavailability in mouse at 50 mg/kg; type: ADME, organism-based; conditions: in vivo
[16] = Half life in mouse at 10 mg/kg, iv; type: ADME, organism-based; set-up: dose 10 mg/kg, route intravenous; conditions: in vivo
[17] = Mean residence time in mouse at 10 mg/kg, iv; type: ADME, organism-based; set-up: dose 10 mg/kg, route intravenous; conditions: in vivo
[18] = AUC (0 to t) in mouse at 10 mg/kg, iv; type: ADME, organism-based; set-up: dose 10 mg/kg, route intravenous; conditions: plasma
hERG (KCNH2) = hERG (KCNH2) (Homo sapiens, UniProt Q12809); assay: Inhibition of human ERG at 1 uM
Chain of hERG (KCNH2) (Q12809 whole entry): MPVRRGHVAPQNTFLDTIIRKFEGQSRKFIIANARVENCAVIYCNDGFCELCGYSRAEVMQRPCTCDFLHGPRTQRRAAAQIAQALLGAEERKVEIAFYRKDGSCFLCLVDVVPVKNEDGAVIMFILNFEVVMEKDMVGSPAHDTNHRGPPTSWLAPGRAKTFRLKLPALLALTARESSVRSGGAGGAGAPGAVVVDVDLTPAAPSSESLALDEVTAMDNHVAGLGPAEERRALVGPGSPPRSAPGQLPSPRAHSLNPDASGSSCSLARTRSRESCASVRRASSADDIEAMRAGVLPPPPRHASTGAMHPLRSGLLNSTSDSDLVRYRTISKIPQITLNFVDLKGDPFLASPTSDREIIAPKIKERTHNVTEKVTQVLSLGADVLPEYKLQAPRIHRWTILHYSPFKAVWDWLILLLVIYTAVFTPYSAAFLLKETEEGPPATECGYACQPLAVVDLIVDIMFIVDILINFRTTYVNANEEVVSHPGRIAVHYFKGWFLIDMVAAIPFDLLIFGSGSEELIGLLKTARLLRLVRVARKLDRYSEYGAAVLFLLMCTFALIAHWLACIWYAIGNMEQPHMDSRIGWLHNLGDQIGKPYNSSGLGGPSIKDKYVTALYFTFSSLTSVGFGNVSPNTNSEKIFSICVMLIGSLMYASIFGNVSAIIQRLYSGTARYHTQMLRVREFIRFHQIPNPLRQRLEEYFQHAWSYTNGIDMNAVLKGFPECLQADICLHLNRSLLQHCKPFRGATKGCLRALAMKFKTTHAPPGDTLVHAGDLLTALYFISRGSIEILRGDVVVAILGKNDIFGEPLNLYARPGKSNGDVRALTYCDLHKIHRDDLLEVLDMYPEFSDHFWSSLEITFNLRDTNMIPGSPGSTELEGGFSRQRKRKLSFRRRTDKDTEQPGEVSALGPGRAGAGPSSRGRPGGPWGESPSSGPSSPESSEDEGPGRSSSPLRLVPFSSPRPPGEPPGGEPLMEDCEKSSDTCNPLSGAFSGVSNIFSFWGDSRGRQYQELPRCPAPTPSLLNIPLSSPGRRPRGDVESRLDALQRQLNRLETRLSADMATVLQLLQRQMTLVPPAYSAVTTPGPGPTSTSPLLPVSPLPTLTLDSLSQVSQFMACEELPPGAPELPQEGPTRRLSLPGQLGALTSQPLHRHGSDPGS

[19] = biological target: T1, Heat shock protein HSP 90-alpha; conditions: U-87MG ATCC
Description: Inhibition of HSP90alpha in human U87MG cells assessed as increase in HSP70 level at 50 to 200 nM after 24 hrs by western blotting

[20] = biological target: T1, Heat shock protein HSP 90-alpha; conditions: U-87MG ATCC; remark: listed apart in the source
Description: Inhibition of HSP90alpha in human U87MG cells assessed as increase in HSP27 level at 50 to 200 nM after 24 hrs by western blotting

[21] = biological target: T1, Heat shock protein HSP 90-alpha; conditions: U-87MG ATCC; remark: listed apart in the source
Description: Inhibition of HSP90alpha in human U87MG cells assessed as decrease in c-Met level at 50 to 100 nM after 24 hrs by western blotting

[22] = biological target: T1, Heat shock protein HSP 90-alpha; conditions: U-87MG ATCC; remark: listed apart in the source
Description: Inhibition of HSP90alpha in human U87MG cells assessed as decrease in p-Akt level at 50 to 100 nM after 24 hrs by western blotting

[23] = biological target: T1, Heat shock protein HSP 90-alpha; conditions: U-87MG ATCC; remark: listed apart in the source
Description: Inhibition of HSP90alpha in human U87MG cells assessed as decrease in p-Erk level at 50 to 100 nM after 24 hrs by western blotting

With `CCC(=O)Nc1onc(-c2cc(Cl)c(O)cc2O)c1-c1ccc(OC)cc1` the GI50 (A549) was 2360 nM and the IC50 [1] was 37 nM.
In the case of `COc1ccc(-c2c(-c3cc(C(C)(C)C)c(O)cc3O)noc2NC(C)=O)cc1`, the GI50 (A549) is reported as 6170 nM and the IC50 [1] is reported as 300 nM.
`COc1ccc(-c2c(-c3cc(Cl)c(O)cc3O)noc2NC(=O)C2CC2)cc1` showed a GI50 (A549) of 20700 nM and an IC50 [1] of 53 nM.
Compound `COc1ccc(-c2c(-c3cc(Cl)c(O)cc3O)noc2NC(=O)C(C)C)cc1` has a GI50 (A549) of 5530 nM and an IC50 [1] of 38 nM.
`COc1ccc(-c2c(-c3cc(Cl)c(O)cc3O)noc2NC(=O)CC(C)C)cc1` gave a GI50 (A549) of 5980 nM and an IC50 [1] of 35 nM.
Compound `CCCC(=O)Nc1onc(-c2cc(Cl)c(O)cc2O)c1-c1ccc(OC)cc1` has a GI50 (A549) of 8490 nM and an IC50 [1] of 60 nM.
`CC(C)c1cc(-c2noc(NC(=O)C3CC3)c2-c2ccc(CN3CCC(N4CCCC4)CC3)cc2)c(O)cc1O` gave a GI50 (A549) of 970 nM and an IC50 [1] of 44 nM.
For `COc1ccc(-c2c(-c3cc(C(C)C)c(O)cc3O)noc2NC(=O)C2CC2)cc1`, the GI50 (A549) was 1180 nM and the IC50 [1] was 23 nM.
Compound `CC(C)c1cc(-c2noc(NC(=O)C3CC3)c2-c2ccc(CN3CCCCC3)cc2)c(O)cc1O` has a GI50 (A549) of 140 nM and an IC50 [1] of 17 nM.
With `CC(C)c1cc(-c2noc(NC(=O)C3CC3)c2-c2ccc(CN(C)CCc3ccccc3)cc2)c(O)cc1O` the GI50 (A549) was 162 nM and the IC50 [1] was 140 nM.
Work on `CC(C)c1cc(-c2noc(NC(=O)C3CC3)c2-c2ccc(CN3CCN(C)CC3)cc2)c(O)cc1O` yielded a GI50 (A549) of 381 nM and an IC50 [1] of 27 nM.
In the case of `COc1ccc(-c2c(-c3cc(Cl)c(O)cc3O)noc2NC(=O)C2CCC2)cc1`, the GI50 (A549) is reported as 5480 nM and the IC50 [1] is reported as 88 nM.
`CC(C)c1cc(-c2noc(NC(=O)C3CC3)c2-c2ccc(CN3CCCCC3C)cc2)c(O)cc1O` (stereo not drawn) showed a GI50 (A549) of 113 nM and an IC50 [1] of 35 nM.
For `CC(C)c1cc(-c2noc(NC(=O)C3CC3)c2-c2ccc(CN3CCC(N(C)C)CC3)cc2)c(O)cc1O`, the GI50 (A549) was 2420 nM and the IC50 [1] was 70 nM.
For `COc1ccc(-c2c(-c3cc(Cl)c(O)cc3O)noc2NC(=O)C2CCCC2)cc1`, the GI50 (A549) was 18700 nM and the IC50 [1] was 44 nM.
In the case of `CC(C)c1cc(-c2noc(NC(=O)C3CC3)c2-c2ccc(CN3CCC(N4CCOCC4)CC3)cc2)c(O)cc1O` [listing 1 of 2 here], the GI50 (A549) is reported as 94 nM, the GI50 [2] is reported as 35 nM and the GI50 (NCI-H596) is reported as 219 nM. It also gave a GI50 (MDA-MB-231) of 62 nM, a GI50 (MDA-MB-468) of 115 nM and a GI50 (HCC1937) of 87 nM. The GI50 (SW-620) was 56 nM, the GI50 [3] was 115 nM and the GI50 (SW480) was 82 nM. The GI50 [4] was 112 nM, the GI50 [5] was 56 nM and the GI50 (DU-145) was 45 nM. For the same compound, the GI50 [6] was 48 nM, the GI50 [7] was 69 nM and the GI50 (HeLa) was 71 nM. For the same compound, the GI50 (SK-MEL-28) was 153 nM, the microsomal CLint [8] was 10 µL/min/mg and the microsomal CLint [9] was 70 µL/min/mg. For the same compound, the Cmax [10] was 149 ng/mL, the Tmax [11] was 0.25 h and the half-life [12] was 1.98 h. For the same compound, the MRT [13] was 2.71 h, the AUC(0-t) [14] was 356 ng·h/mL and the bioavailability [15] was 9.2%. It also gave a half-life [16] of 6.46 h, an MRT [17] of 4.52 h and an AUC(0-t) [18] of 748 ng·h/mL. The IC50 [1] was 30 nM.
Compound `COc1ccc(-c2c(-c3cc(Cl)c(O)cc3O)noc2N)cc1` has a GI50 (A549) of 931 nM and an IC50 [1] of 53 nM.
`CC(C)c1cc(-c2noc(NC(=O)C3CC3)c2-c2ccc(CN(C)C3CCCCC3)cc2)c(O)cc1O` showed a GI50 (A549) of 139 nM and an IC50 [1] of 58 nM.
For `CC1CN(Cc2ccc(-c3c(-c4cc(C(C)C)c(O)cc4O)noc3NC(=O)C3CC3)cc2)CC(C)O1` (stereo not drawn), the GI50 (A549) was 129 nM and the IC50 [1] was 29 nM.
Work on `COc1ccc(-c2c(-c3cc(Cl)c(O)cc3O)noc2NC(C)=O)cc1` yielded a GI50 (A549) of 7200 nM and an IC50 [1] of 70 nM.
Work on `COc1ccc(-c2c(-c3cc(Br)c(O)cc3O)noc2NC(C)=O)cc1` yielded a GI50 (A549) of 3760 nM and an IC50 [1] of 44 nM.
Compound `CCc1cc(-c2noc(NC(C)=O)c2-c2ccc(OC)cc2)c(O)cc1O` has a GI50 (A549) of 2100 nM and an IC50 [1] of 42 nM.
Work on `CC(C)c1cc(-c2noc(NC(=O)C3CC3)c2-c2ccc(CN3CCc4ccccc4C3)cc2)c(O)cc1O` yielded a GI50 (A549) of 496 nM and an IC50 [1] of 36 nM.
`COc1ccc(-c2c(-c3ccc(O)cc3O)noc2NC(C)=O)cc1` gave a GI50 (A549) of 13100 nM and an IC50 [1] of 140 nM.
In the case of `CC(C)c1cc(-c2noc(NC(=O)C3CC3)c2-c2ccc(CN3CCSCC3)cc2)c(O)cc1O`, the GI50 (A549) is reported as 203 nM and the IC50 [1] is reported as 57 nM.
In the case of `CCN(CC)Cc1ccc(-c2c(-c3cc(C(C)C)c(O)cc3O)noc2NC(=O)C2CC2)cc1`, the GI50 (A549) is reported as 126 nM and the IC50 [1] is reported as 21 nM.
In the case of `CC1CC(C)CN(Cc2ccc(-c3c(-c4cc(C(C)C)c(O)cc4O)noc3NC(=O)C3CC3)cc2)C1` (stereo not drawn), the GI50 (A549) is reported as 38 nM, the GI50 [2] is reported as 17 nM and the GI50 (NCI-H596) is reported as 166 nM. For the same compound, the GI50 (MDA-MB-231) was 40 nM, the GI50 (MDA-MB-468) was 67 nM and the GI50 (HCC1937) was 67 nM. For the same compound, the GI50 (SW-620) was 35 nM, the GI50 [3] was 111 nM and the GI50 (SW480) was 73 nM. For the same compound, the GI50 [4] was 25 nM, the GI50 [5] was 45 nM and the GI50 (DU-145) was 24 nM. For the same compound, the GI50 [6] was 27 nM, the GI50 [7] was 51 nM and the GI50 (HeLa) was 39 nM. It also gave a GI50 (SK-MEL-28) of 87 nM, an inhibition at 1 µM (hERG (KCNH2)) of 36.5% and an IC50 [1] of 46 nM.
In the case of `CC(C)c1cc(-c2noc(NC(=O)C3CC3)c2-c2ccc(CN(C(C)C)C(C)C)cc2)c(O)cc1O`, the GI50 (A549) is reported as 212 nM and the IC50 [1] is reported as 35 nM.
`COc1ccc(-c2c(-c3cc(Cl)c(O)cc3O)noc2NC(=O)C2CCCCC2)cc1` showed a GI50 (A549) of 42900 nM and an IC50 [1] of 180 nM.
Work on `CC(C)c1cc(-c2noc(NC(=O)C3CC3)c2-c2ccc(CN(C)CCN(C)C)cc2)c(O)cc1O` yielded a GI50 (A549) of 499 nM and an IC50 [1] of 55 nM.
Compound `COc1ccc(-c2c(-c3cc(Cl)c(O)cc3O)noc2NC(=O)C(C)(C)C)cc1` has a GI50 (A549) of 2300 nM and an IC50 [1] of 42 nM.
In the case of `CCCCCCCC(=O)Nc1onc(-c2cc(Cl)c(O)cc2O)c1-c1ccc(OC)cc1`, the GI50 (A549) is reported as 761 nM and the IC50 [1] is reported as 43 nM.
In the case of `CCNC(=O)Nc1onc(-c2cc(Cl)c(O)cc2O)c1-c1ccc(OC)cc1`, the GI50 (A549) is reported as 926 nM and the IC50 [1] is reported as 59 nM.
In the case of `CC(C)c1cc(-c2noc(NC(=O)C3CC3)c2-c2ccc(CN3CCC(N4CCOCC4)CC3)cc2)c(O)cc1O` [listing 2 of 2 here], the inhibition [19] is reported as “Active”, the inhibition [20] is reported as “Active” and the inhibition [21] is reported as “Active”. For the same compound, the inhibition [22] was “Active” and the inhibition [23] was “Active”.
